# Experiment: Cuticle penetration test
# Format: in vitro ADME, apple tree
# Source text: This test measures the penetration of active ingredients through enzymatically isolated cuticles of apple tree leaves.
# Leaves that have been cut off apple trees in the developed state and isolated by the method described in Schönherr and Riederer (Schönherr, J., Riederer, M. (1986)) are used. Only the cuticles of the top sides of the leaves that are free of stomata and hair are used further.
# For membrane transport studies, the cuticular membranes thus obtained are placed into stainless steel diffusion cells (=transport chambers). For this purpose, the cuticles are placed with tweezers onto the middle of the silicone grease-smeared edges of the diffusion cells and sealed with a likewise greased ring. The arrangement is chosen such that the morphological outside of the cuticles is directed outward, i.e. toward the air, while the original inside faces the inside of the diffusion cell. The diffusion cells are filled with water or with a mixture of water and solvent and buffered to the physiologically relevant pH of 5.5. The medium in the diffusion cells is supposed to simulate the apoplast, i.e. the natural absorption medium within the leaf. This method is of good suitability for systemic and mechanistic studies with the aim of understanding the effect of the formulations, adjuvants and solvents on penetration of the crop protection compositions.
# The active ingredient concentration corresponds to the field application rate customary in practice. For preparation of the spray liquor the corresponding ingredients in the given amounts are given into tap water and homogenized by mixing.
# After the spray liquors have been applied, the water is allowed to evaporate in each case, then the chambers are inverted and they are placed into thermostated tanks, wherein air at a defined air humidity and temperature is blown onto the outside of the cuticles in each case. The penetration that sets in therefore takes place at a relative air humidity of 56% and a set temperature of 25° C. At regular intervals, an autosampler is used to take samples and the content of penetrated active ingredient is measured by means of HPLC. The numbers reported are average values from 5 to 10 individual measurements in each case.
smiles,measurement,setting,value
O=C1C=C(N(Cc2ccc(Cl)nc2)CC(F)F)CO1 [Flupyradifurone],Penetration after 24 h,"entry 1: spray solution 0.1 g/L Compd I-2 + 0.5 g/L flupyradifurone, no additives, 25° C., 56% r.h.",5.1%
same,Penetration after 24 h,"entry 1: spray solution 0.1 g/L Compd I-2 + 0.5 g/L flupyradifurone, no additives, 25° C., 56% r.h., listed as flupyradifurone","barely any, if any, cuticle penetration"
same,Penetration after 24 h,"entry 2: 0.1 g/L Compd I-2 + 0.5 g/L flupyradifurone + DAHP 1.6 g/L, 25° C., 56% r.h.",29.2%
same,Penetration after 24 h,"entry 3: 0.1 g/L Compd I-2 + 0.5 g/L flupyradifurone + Antarox B/848 1.3 g/L, 25° C., 56% r.h.",73%
same,Penetration after 24 h,"entry 4: 0.1 g/L Compd I-2 + 0.5 g/L flupyradifurone + Antarox B/848 1.3 + DAHP 1.6 g/L, 25° C., 56% r.h.",82.8%
same,Penetration after 24 h,entry 5: as entry 4 + 1.8 g/L Propylenglycolmonomethylether (B) + 1.8 g/L Propylenglycol (C),87.2%
same,Penetration after 24 h,entry 6: as entry 4 + 1.8 g/L Propylenglycolmonomethylether (B) + 1.8 g/L Dipropylenglycol (D),100%
same,Penetration after 24 h,entry 7: as entry 4 + 2.1 g/L Dipropylenglycolmonomethylether (A) + 1.4 g/L Propylenglycolmonomethylether (B),100%
same,Penetration after 24 h,entry 8: as entry 4 + 2.5 g/L Dipropylenglycolmonomethylether (A) + 1.2 g/L Propylenglycol (C),95%
